Data as given in patent US5849560A, “Proteases causing degradation of amyloid β-protein precursor” (priority 1993, dated 1998).
Non-standard residues stand in square brackets, D forms with d. Residues, ends and D or L forms follow the SMILES beside them. *: point of attachment. Sta = CC(C)C[C@H](N)[C@@H](O)CC(=O)O; Isovaleryl = CC(C)CC(=O)*; Cbz = O=C(OCc1ccccc1)*; CH2F = FC*

What was measured:
[1] = target: T1, "Met cut" metalloprotease (AD metalloprotease) purified from AD brain homogenate (Homo sapiens, UniProt P52888); assay: Effect of additives on synthetic peptide substrate (P1) degrading activity of the purified Met cut metalloprotease; format: biochemical; conditions: for effect on metalloprotease activity (in words): concentrations as in Table II, divalent ions at 2 mM; for remaining activity at 5000 µM: reagent conc. 5.0 mM; for remaining activity at 150 µM: reagent conc. 0.15 mM; for remaining activity at 200 µM: reagent conc. 0.2 mM; for remaining activity at 140 µM: reagent conc. 0.14 mM
T1 construct: isolate and purify an AD metalloprotease from AD brain homogenate; from tissue; host or cells: brain of Alzheimer's disease patients
T1 sequence (P52888 whole entry): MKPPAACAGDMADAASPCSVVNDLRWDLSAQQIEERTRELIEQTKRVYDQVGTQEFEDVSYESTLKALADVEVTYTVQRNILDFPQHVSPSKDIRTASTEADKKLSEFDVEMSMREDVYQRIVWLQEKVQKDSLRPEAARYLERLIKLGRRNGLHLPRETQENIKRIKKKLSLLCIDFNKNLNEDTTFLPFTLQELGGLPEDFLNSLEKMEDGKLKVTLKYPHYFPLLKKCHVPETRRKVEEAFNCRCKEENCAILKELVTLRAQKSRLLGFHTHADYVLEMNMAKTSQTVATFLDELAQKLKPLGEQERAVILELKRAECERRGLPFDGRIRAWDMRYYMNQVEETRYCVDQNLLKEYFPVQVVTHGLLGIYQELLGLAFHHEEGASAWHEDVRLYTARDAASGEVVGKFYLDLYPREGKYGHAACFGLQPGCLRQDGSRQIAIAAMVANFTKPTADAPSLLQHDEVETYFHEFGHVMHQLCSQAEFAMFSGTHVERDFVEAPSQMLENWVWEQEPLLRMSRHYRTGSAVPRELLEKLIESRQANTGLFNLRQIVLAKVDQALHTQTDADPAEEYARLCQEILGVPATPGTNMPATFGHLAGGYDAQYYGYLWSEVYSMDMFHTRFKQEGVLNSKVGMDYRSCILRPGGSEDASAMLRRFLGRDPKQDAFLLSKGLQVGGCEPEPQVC
Experimental: The different protease fractions are monitored for proteolytic activity against iodinated peptide "P1". Incubations are carried out at 37° C. in 50 mM Tris-Cl, pH 7.4, in the presence of 1 mM MgCl2 +1 mM DTT. The proteolytic products are separated by TLC on cellulose microcrystalline plates, using n-butanol:pyridine:acetic acid:water, 15:10:3:12 (v/v), as a solvent, followed by autoradiography. […] ID NO. 1] to His-Ser-Glu-Val-Lys-Met [SEQ, ID NO. 2] were quantified with a Molecular Dynamics ImageQuant™ v3.0 scanning densitometer or a Bioscan system 200 imaging scanner. […] One unit of Met cut metalloprotease activity under these conditions was defined as converting 1 μg of P1 to His-Ser-Glu-Val-Lys-Met [SEQ. ID NO. 2] in 1 min.
Referring now to Table II, the effects of various additives on the activity degrading the synthetic substrate (P1) were examined. The metalloprotease sample as incubated with the appropriate amount of additive and assayed for remaining activity, as described above. Control reactions with no reagent, or containing only the solvent of the reagent were always included. Reactions were allowed to proceed for 45 min at 4° C., except E-64 which was incubated for 15 or 30 min (b and c respectively) and iodoacetamide was incubated at 37° C. for 30 min.
Stock solutions of phenylmethylsulfonyl fluoride (PMSF)", E-64, 1,10 phenanthroline, calpain inhibitor, Z-Phe-Phe-CH2 F (Enzyme Systems Products, Livermore, Calif.) were dissolved in ethanol. […] ZINCOV (Calbiochem, Calif.) and phosphoramidon (Sigma, USA), were also dissolved in water. Pepstatin A was dissolved in methanol. The susceptibility of the protease activity to various divalent cations was determined by including metals at a final concentration of 2 mM in the assay reaction mixture.

[2] = tested on: Ca2+ activated serine protease (serine AD proteolytic factor) from AD brain; assay: Peptide degradation assay (125I-P1, TLC) with the serine AD proteolytic factor and inhibitors; format: biochemical, human
[3] = reagent conc. 1.0 mM, 45 min at 4° C.
[4] = concentrations as in Table II (iodoacetamide 8.0 mM, leupeptin 0.2 mM), read-out: partial inhibitory effect on the protease

## CCN1C(=O)C=CC1=O [N-ethylmaleimide]
[1]
  effect on metalloprotease activity (in words): strong inhibition
[1]; 45 min at 4° C.
  remaining activity at 5000 µM: 7.9%

## C[C@H](NC(=O)[C@H](C)NC(CCc1ccccc1)C(=O)O)C(=O)N[C@@H](Cc1ccccc1)C(=O)Nc1ccc(C(=O)O)cc1 (stereo partly drawn) [CPP-Ala-Ala-Phe-pAB]
[1]
  effect on metalloprotease activity (in words): strongly inhibited
[1]; reagent conc. 0.015 mM, 45 min at 4° C.
  remaining activity at 15 µM: 47.5%
[1]; 45 min at 4° C.
  remaining activity at 150 µM: 28%

## CC(C)C[C@H](NC(=O)[C@@H](O)[C@H](N)Cc1ccccc1)C(=O)O [Bestatin]
[1]; reagent conc. 0.002 mM, 45 min at 4° C.
  remaining activity at 2 µM: 60%

## O=C(O)c1cc[c]([Hg][OH])cc1 [Hydroxymercurybenzoate, hydroxymercurybenzoate]
[1]
  effect on metalloprotease activity (in words): strong inhibition
[1]; reagent conc. 1.6 mM, 45 min at 4° C.
  % Activity Remaining: 0%
[1]; stoichiometrically increasing concentrations of DTT
  reversal of inhibition by the reducing agent (DTT): readily reversed

## O[C@H](CS)[C@H](O)CS (racemic) [Dithiothreitol, dithiothreitol]
[1]
  effect on metalloprotease activity (in words): required for the activity
[1]; reagent conc. 0.0 mM
  % Activity Remaining: 0%
[1]; [3]
  remaining activity at 1000 µM: 100%
[1]; reagent conc. 2.5 mM
  remaining activity at 2500 µM: 70.8%
[1]; 45 min at 4° C.
  remaining activity at 5000 µM: 25.5%

## O=C(N[C@@H](Cc1ccccc1)C(=O)N[C@@H](Cc1ccccc1)C(=O)CF)OCc1ccccc1 [Z-Phe-Phe-CH2F] (Cbz-Phe-Phe-CH2F)
[1]; 45 min at 4° C.
  remaining activity at 200 µM: 82.7%

## O=S(=O)(F)Cc1ccccc1 [PMSF, phenylmethylsulfonyl fluoride]
[1]; reagent conc. 7.0 mM, 45 min at 4° C.
  % Activity Remaining: 100%

## CC(C)C[C@H](NP(=O)(O)O[C@@H]1O[C@@H](C)[C@H](O)[C@@H](O)[C@H]1O)C(=O)N[C@@H](Cc1c[nH]c2ccccc12)C(=O)O [Phosphoramidon]
[1]; [3]
  remaining activity at 1000 µM: 89.5%

## NC(=O)CI [Iodoacetamide]
[1]; [4]
  inhibition at 8000 µM: 34%
[1]; reagent conc. 8.0 mM, 37° C. for 30 min
  remaining activity at 8000 µM: 66%

## c1cnc2c(c1)ccc1cccnc12 [1,10 phenanthroline]
[1]
  effect on metalloprotease activity (in words): Strong inhibition
[1]; reagent conc. 4.0 mM, 45 min at 4° C.
  remaining activity at 4000 µM: 0%

## Aprotinin
[1]; reagent conc. 0.03 mM, 45 min at 4° C.
  % Activity Remaining: 100%

## CC(=O)N[C@@H](CC(C)C)C(=O)N[C@@H](CC(C)C)C(=O)N[C@H](C=O)CCCNC(=N)N [Leupeptin]
[1]; [4]
  inhibition at 200 µM: 36.3%
[1]; 45 min at 4° C.
  remaining activity at 200 µM: 63.7%

## albumin
[2]
  effect on cleavage of 125I-P1 by the serine AD proteolytic factor (in words): did not influence the activity

## CC(C)CC(NC(=O)C1OC1C(=O)O)C(=O)NCCCCN=C(N)N (stereo not shown) [E-64]
[1]
  effect on metalloprotease activity (in words): less
[1]; incubated 15 min (b)
  remaining activity at 140 µM: 57.5%
[1]; incubated 30 min (c)
  remaining activity at 140 µM: 27.3%

## O=C(O)CN(CCOCCOCCN(CC(=O)O)CC(=O)O)CC(=O)O [EGTA]
[1]
  effect on metalloprotease activity (in words): Strong inhibition
[1]; reagent conc. 7.5 mM, 45 min at 4° C.
  remaining activity at 7500 µM: 0%
[2]
  effect on cleavage of 125I-P1 by the serine AD proteolytic factor (in words): prevent cleavage

## CC(C)CC(=O)N[C@H](C(=O)N[C@H](C(=O)N[C@@H](CC(C)C)[C@@H](O)CC(=O)N[C@@H](C)C(=O)N[C@@H](CC(C)C)[C@@H](O)CC(=O)O)C(C)C)C(C)C [Pepstatin A] (Isovaleryl-VV[Sta]A[Sta]-OH)
[1]; 45 min at 4° C.
  remaining activity at 150 µM: 100%

## CC(C)CC(C(=O)NO)C(=O)N[C@@H](C)C(=O)NCC(N)=O (stereo partly shown) [ZINCOV]
[1]
  effect on metalloprotease activity (in words): Strong inhibition
[1]; [3]
  % Activity Remaining: 42.4%

B1: ACT: serine protease inhibitor α1-antichymotrypsin (Calbiochem) (protein, UniProt P01011 24-423, looked up)
Alpha-1-antichymotrypsin: HPNSPLDEENLTQENQDRGTHVDLGLASANVDFAFSLYKQLVLKAPDKNVIFSPLSISTALAFLSLGAHNTTLTEILKGLKFNLTETSEAEIHQSFQHLLRTLNQSSDELQLSMGNAMFVKEQLSLLDRFTEDAKRLYGSEAFATDFQDSAAAKKLINDYVKNGTRGKITDLIKDLDSQTMMVLVNYIFFKAKWEMPFDPQDTHQSRFYLSKKKWVMVPMMSLHHLTIPYFRDEELSCTVVELKYTGNASALFILPDQDKMEEVEAMLLPETLKRWRDSLEFREIGELYLPKFSISRDYNLNDILLQLGIEEAFTSKADLSGITGARNLAVSQVVHKAVLDVFEEGTEASAATAVKITLLSALVETRTIVRFNRPFLMIIVPTDTQNIFFMSKVTNPKQA
[2]
  effect on cleavage of 125I-P1 by the serine AD proteolytic factor (in words): inhibited cleavage

B2: protease nexin 1: protease nexin 1 (protein, UniProt P07093 20-398, looked up)
Glia-derived nexin: SHFNPLSLEELGSNTGIQVFNQIVKSRPHDNIVISPHGIASVLGMLQLGADGRTKKQLAMVMRYGVNGVGKILKKINKAIVSKKNKDIVTVANAVFVKNASEIEVPFVTRNKDVFQCEVRNVNFEDPASACDSINAWVKNETRDMIDNLLSPDLIDGVLTRLVLVNAVYFKGLWKSRFQPENTKKRTFVAADGKSYQVPMLAQLSVFRCGSTSAPNDLWYNFIELPYHGESISMLIALPTESSTPLSAIIPHISTKTIDSWMSIMVPKRVQVILPKFTAVAQTDLKEPLKVLGITDMFDSSKANFAKITTGSENLHVSHILQKAKIEVSEDGTKASAATTAILIARSSPPWFIVDRPFLFFIRHNPTGAVLFMGQINKP
[2]
  effect on cleavage of 125I-P1 by the serine AD proteolytic factor (in words): did not influence the activity

B3: Soybean Trypsin Inhibitor: Soybean Trypsin Inhibitor, protease inhibitor tested in Table II (protein, UniProt P01070 25-205, looked up)
Trypsin inhibitor A: DFVLDNEGNPLENGGTYYILSDITAFGGIRAAPTGNERCPLTVVQSRNELDKGIGTIISSPYRIRFIAEGHPLSLKFDSFAVIMLCVGIPTEWSVVEDLPEGPAVKIGENKDAMDGWFRLERVSDDEFNNYKLVFCPQQAEDDKCGDIGISIDHDDGTRRLVVSKNKPLVVQFQKLDKESL
[1]; reagent conc. 0.01 mM, 45 min at 4° C.
  % Activity Remaining: 100%
